{"source": "patent US12662473B2", "about": "“Inhibitors for programmed cell necrosis and preparation method therefor and use thereof” (SHANGHAI INSTITUTE OF ORGANIC CHEMISTRY, CHINESE ACADEMY OF …, priority 2019, dated 2026)", "key": {"RIPK1(1-330) protein": {"biological_target": "T1, RIPK1(1-330) protein (Homo sapiens, UniProt Q13546)", "T1 sequence (Q13546 1-330)": "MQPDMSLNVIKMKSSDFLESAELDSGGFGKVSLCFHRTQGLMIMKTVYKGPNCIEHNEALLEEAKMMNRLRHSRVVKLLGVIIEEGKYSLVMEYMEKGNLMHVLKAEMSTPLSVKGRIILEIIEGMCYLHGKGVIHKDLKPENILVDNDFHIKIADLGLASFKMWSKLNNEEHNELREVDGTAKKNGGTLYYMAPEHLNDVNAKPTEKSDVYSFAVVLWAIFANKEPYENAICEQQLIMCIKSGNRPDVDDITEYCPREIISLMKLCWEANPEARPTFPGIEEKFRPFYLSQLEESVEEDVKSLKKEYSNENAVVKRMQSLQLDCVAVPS", "assay": "Protein thermal shift assay", "assay_type": "binding", "set-up": "RIPK1(1-330) protein (final concentration 2 μM) was expressed and purified in insect cells; made in house; host or cells: insect cells", "details": "FIG. 3", "experimental": "The interaction between RIPK1 protein and compound was analyzed by studying the thermal stability of the protein. Small molecule ligands can stabilize proteins by binding to proteins, increasing the Tm value of proteins. The interaction between the compound and the protein can be indirectly judged by testing the effect of the compound on the thermal stability of the protein. RIPK1 protein contains kinase domain (1-312), intermediate domain (312-582) and death domain (582-669), and RIPK1 (1-330) protein purified in vitro contains all kinase domains.\nThe adopted biological test protocol was to test the effect of compound QY-1-98 on the thermal stability of RIPK1 (1-330) protein using protein thermal shift assay, using the known RIPK1 inhibitor Nec-1s as a control.\nRIPK1(1-330) protein (final concentration 2 μM) was expressed and purified in insect cells, mixed with the corresponding concentration of compound and SYRO Orange Protein gel stain dye (final concentration 5×). 10 μL of final volume was added to 384-well plate, and at least 3 duplicate wells were set in each group. After the samples were placed for 2 hours at room temperature, the 7500 Fast Real-Time PCR System was applied to test the thermal stability of the protein by […]. The temperature was set at 25° C.-95° C., 0.015° C./s. The datas were analyzed using protein thermal shift software."}, "RIPK1 (S161A)": {"test_system": "RIPK1 (S161A)", "assay": "Effect of RIPK1 S161A mutation on compound activity (293T overexpression; S161A MEFs cell death with TNFα and 5z7)", "assay_type": "cell-based, murine", "details": "FIG. 5", "source_text": "The biological test protocol used in this experiment was to test the effect of mutation of serine at position 161 of RIPK1 to alanine on the activity of compound QY-1-98. The experiment was verified by two aspects. On the one hand, after RIPK1 was overexpressed in 293T cells, RIPK1 would be activated by autophosphorylation, and the activity of small molecules to inhibit the phosphorylation of RIPK1 was detected at this time. On the other hand, in murine-derived MEFs cells with RIPK1 knockout, and RIPK1 (S161A) put back, RIPK1-dependent cell apoptosis can be induced by using TNFα and 5z7 (TAK1 inhibitor), and the effect of the compound to inhibit cell death was detected at this time.\n1. 293T cells overexpressing RIPK1 experiment: RIPK1 plasmid with N-terminal 3×FLAG was constructed on PcDNA vector. 293T cells were digested, and then diluted to 8×10^5/ml. 1 ml of cells were added to each well of a 12-well cell culture plate, and the plate was placed in a cell culture incubator (37° C., 5% CO2) for 12 hours before transfection. […] After cooling, the samples were detected by western-blot after electrophoresis on SDS-PAGE gel (9%). […] The plate was placed in cell incubator (37° C., 5% CO2) for 14 h, 15 μl of Cell Titer-Glo solution was added to each well, the mixture was incubated at room temperature for 30 min, and the luminescence value was detected to measure the level of intracellular ATP. […]"}}}
{"smiles": "Cc1noc([C@@H]2CCCN2C(=O)C(C)(C)Oc2ccc(Cl)cc2)n1", "note": "[QY-1-98]", "values": [{"measurement": "thermal stability of RIPK1 (1-330) protein", "setting": "RIPK1(1-330) protein", "value": "can significantly improve the thermal stability"}, {"measurement": "inhibition of programmed cell necrosis after mutation of serine 161 of RIPK1 to alanine", "setting": "RIPK1 (S161A)", "value": "can still inhibit the programmed cells necrosis"}]}
